Data on 8 compounds can be found in ChEMBL document CHEMBL2146458, “Tanshinones as selective and slow-binding inhibitors for SARS-CoV cysteine proteases” (Bioorg Med Chem, 2012).

pIC50, pKi: −log10 of the molar value. The source made the active and inactive calls. The calls are words filed in the database; no cut-off is given here.

Experiment [1] deals with T1, Replicase polyprotein 1a (Severe acute respiratory syndrome-related coronavirus, UniProt P0C6U8).
Experiment [2] addresses Replicase polyprotein 1a (Severe acute respiratory syndrome-related coronavirus) (UniProt P0C6U8).
For experiment [3], the target named is T1, Replicase polyprotein 1a. The source holds these as a separate data set.
Experiment [4] has as its target T1, Replicase polyprotein 1a. Particulars: read-out: Ki(app).
Experiment [5] deals with T1, Replicase polyprotein 1a. This is another data set of the same source.
The nature of experiment [6]: Inhibition of chymotrypsin using N-benzoyl-L-tyrosine ethyl ester as substrate assessed as benzoyl-tyrosine production at 200 uM measured every 10 seconds for 6 mins.
Experiment [7] deals with T2, Papain (Carica papaya) (UniProt P00784).
T2 sequence (whole entry): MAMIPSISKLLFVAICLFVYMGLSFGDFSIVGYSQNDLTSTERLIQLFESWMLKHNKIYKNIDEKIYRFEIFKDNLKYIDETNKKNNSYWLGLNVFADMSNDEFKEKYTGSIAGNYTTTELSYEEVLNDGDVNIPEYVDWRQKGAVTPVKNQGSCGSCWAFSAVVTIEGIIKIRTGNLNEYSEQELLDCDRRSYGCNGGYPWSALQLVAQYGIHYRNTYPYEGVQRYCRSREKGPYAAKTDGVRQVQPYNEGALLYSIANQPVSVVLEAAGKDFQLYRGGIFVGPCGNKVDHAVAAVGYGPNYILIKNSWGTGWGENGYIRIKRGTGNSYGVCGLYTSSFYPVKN
Nature of the experiment: Inhibition of papaya papain using N-alpha-benzoyl-L-arginine-pnitroanilide as substrate at 200 uM after 5 mins.

Experiment [8] has as its target Protease (Human immunodeficiency virus 1) (UniProt Q9YQ12). Nature of the experiment: Inhibition of Human immunodeficiency virus 1 protease at 200 uM preincubated for 10 mins by FRET assay.
The target in experiment [9] is Replicase polyprotein 1a (Severe acute respiratory syndrome-related coronavirus) (UniProt P0C6U8). Particulars: 1 to 100 uM.
The target is the same in experiment [10]. Particulars: TDE = time-dependent effect.
The target is the same in experiment [11]. This is another data set of the same source.
Experiment [12] addresses T1, Replicase polyprotein 1a. The source holds these as a separate data set.
The target of experiment [13] is Replicase polyprotein 1a (Severe acute respiratory syndrome-related coronavirus) (UniProt P0C6U8). The source holds these as a separate data set.
Experiment [14] shares this target. The source holds these as a separate data set.
Experiment [15] can be described thus: Inhibition of chymotrypsin using N-benzoyl-L-tyrosine ethyl ester as substrate assessed as benzoyl-tyrosine production measured every 10 seconds for 6 mins.
In experiment [16] the target is T3, Papain (Carica papaya, UniProt P00784).
T3 sequence (P00784 whole entry): T2 sequence (whole entry)
In words: Inhibition of papaya papain using N-alpha-benzoyl-L-arginine-pnitroanilide as substrate after 5 mins.

The target in experiment [17] is Protease (Human immunodeficiency virus 1, UniProt Q9YQ12). Nature of the experiment: Inhibition of Human immunodeficiency virus 1 protease preincubated for 10 mins by FRET assay.
Experiment [18] deals with Replicase polyprotein 1a (Severe acute respiratory syndrome-related coronavirus) (UniProt P0C6U8). The source holds these as a separate data set.
For experiment [19] the target is unchanged. The conditions noted are these: 200 uM.
For experiment [20] the target is unchanged. Particulars: 200 uM. This is another data set of the same source.
Experiment [21] has the same target. The source holds these as a separate data set.

Sequence of Protease (Q9YQ12 whole entry): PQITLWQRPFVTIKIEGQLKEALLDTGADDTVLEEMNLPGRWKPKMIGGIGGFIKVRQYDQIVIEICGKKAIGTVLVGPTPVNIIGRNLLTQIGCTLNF
Sequence of Protease (Human immunodeficiency virus 1) (Q9YQ12 as listed by the source): as the sequence (Q9YQ12 whole entry) above

For the compound `Cc1coc2c1C(=O)C(=O)c1c-2ccc2c1CCCC2(C)CO` (configuration not stated) [TANSHINONE IIB], the pIC50 in experiment [1] is 4.97; in experiment [3] it was 4.61; in experiment [5], 4.28; in experiment [12] it was 4.74. Besides, the inhibition entry is “Dose-dependent effect” in [2] and “tde” in experiment [10]. Further, the pKi in experiment [4] was 4.67. Moreover, the inhibition entry in experiment [6], in experiment [7], in [8] and in [9] was “inactive” each time. Besides, the inhibition result in experiment [11], in [13] and in experiment [14] was “Active” in each case.

With `C[C@H]1COC2=C1C(=O)C(=O)c1c2ccc2c1CCCC2(C)C` [CRYPTOTANSHINONE], the negative-log IC50 (pIC50) in [1] was 6.10; in [3], 3.64; in [5], 4.06; in [15], 3.92; in experiment [16], 4.05; in [17], 4.16. The negative-log IC50 (pIC50) in experiment [12] was 5.00. In addition, the pKi in experiment [4] was 5.05. Besides, the inhibition result was “tde” in [10] and “Dose-dependent effect” in experiment [18]. Further, the inhibition result in experiment [11] and in experiment [14] was “Active” each time.

With `Cc1coc2c1C(=O)C(=O)c1c-2ccc2c(C)cccc12` [TANSHINONE I], the pIC50 in experiment [1] is 5.06; in experiment [3], 4.41; in [5], 6.15; in experiment [15] it was 3.99; in experiment [17] it was 4.34; in [12], 4.94. In addition, the inhibition result in experiment [2] was “Dose-dependent effect”; in [10] it was “tde”. In experiment [4], the negative logarithm of the Ki (pKi) was 4.86. Also, the inhibition result in [7] and in experiment [9] was “inactive” each time. Moreover, the inhibition result in experiment [11], in experiment [13] and in experiment [14] was “Active” in each case.

`Cc1coc2c1C(=O)C(=O)c1c-2ccc2c1CCCC2(C)C` [TANSHINONE IIA]: the negative-log IC50 (pIC50) in experiment [1] was 5.80; in [3], 4.05; in experiment [15] it was 4.17; in experiment [16], 3.91; in experiment [17] it was 4.23; in experiment [12], 4.77. The inhibition entry was “Dose-dependent effect” in [2] and “tde” in experiment [10]. Further, in experiment [4], the pKi was 4.95. Besides, the inhibition result in experiment [19] and in experiment [9] was “inactive” each time. Also, the inhibition entry in [11], in experiment [13] and in experiment [14] was “Active” each time.

In [20], `O=C(/C=C/c1cc(O)cc2c1[C@H](C(O)O[C@H](Cc1ccc(O)c(O)c1)C(=O)O)[C@@H](c1ccc(O)c(O)c1)O2)O[C@H](Cc1ccc(O)c(O)c1)C(=O)O` (some centres not stated) registered an inhibition of 30%.

Consider `COC(=O)[C@@]1(C)CCCc2c1ccc1c2C(=O)C(=O)c2c(C)coc2-1` [METHYL TANSHINONATE], for which the negative logarithm of the IC50 (pIC50) in [1] was 5.04; in experiment [3], 4.68; in experiment [15], 3.91; in [17], 3.99; in experiment [12], 4.97. Moreover, the results for the inhibition result in experiment [2] and in experiment [10] were “Dose-dependent effect” and “tde”, respectively. Moreover, the pKi in experiment [4] was 5.01. In addition, the inhibition entry in experiment [19], in [7] and in [9] was “inactive” in each case. Further, the inhibition entry in [11], in experiment [13] and in experiment [14] was “Active” in each case.

Take `CC(C)C1=Cc2ccc3c(c2C(=O)C1=O)CCCC3(C)C` [MILTIRONE]: the negative logarithm of the IC50 (pIC50) in [1] was 4.52; in experiment [3], 4.68; in experiment [5] it was 4.22; in experiment [15], 3.86; in experiment [16], 4.06; in [17], 3.83. In addition, the negative-log IC50 (pIC50) in experiment [12] was 4.10. Also, the values for the inhibition result in experiment [2] and in experiment [10] were “Dose-dependent effect” and “tde”, respectively. Further, in experiment [4], the pKi is 4.67. Besides, in experiment [9], the inhibition entry was “inactive”. Further, the inhibition result in experiment [11], in experiment [13] and in [21] was “Active” each time.

As for `Cc1cccc2c3c(ccc12)C1=C(C(=O)C3=O)[C@@H](C)CO1` [DIHYDROTANSHINONE I], the pIC50 in [1] was 5.31; in [3] it was 4.84; in experiment [5], 5.92; in experiment [17] it was 4.30; in experiment [12], 4.97. In addition, the inhibition result in [2] is “Dose-dependent effect”; in [10] it was “tde”. Further, the pKi in experiment [4] was 4.95. Moreover, the inhibition result in experiment [6], in experiment [7] and in [9] was “inactive” throughout. The inhibition entry in experiment [11], in experiment [13] and in experiment [14] was “Active” throughout.

Broadly, the pIC50 is the negative decadic logarithm of the IC50, by convention in mol/L. As usually defined, the inhibition is how much of the control response was suppressed. Broadly, the pKi is the negative decadic logarithm of the Ki, by convention in mol/L.
